Reference: publication PMC11221189, “Gut microbiota DPP4-like enzymes are increased in type-2 diabetes and contribute to incretin inactivation” (Genome Biology, 2024)
Values joined by “and” are separate entries in the source; they are usually repeats but may differ in a detail not shown here. Equal values may be shown once. “Also recorded” adds a separate entry of the source. Peptide text beside a SMILES is read from it. * marks the point of attachment. pNA = O=[N+]([O-])c1ccc(N*)cc1

Experiments:
[1] = biological target: pmDPP4Δ23 (Parabacteroides merdae, UniProt A0AA37KD06); assay type: biochemical; conditions: for Effect on pmDPP4Δ23 hydrolytic activity (in words): gpPNA hydrolysis; for EC50 pmDPP4: gpPNA substrate, non-linear fit, sitagliptin and linagliptin data did not fit (R^2 ND)
[2] = system: depression-like behavior; conditions: obesogenic diet; cited from earlier work
[3] = system: T1, pmDPP4Δ23 (headed pmDPP4 in Table 1 and Table S1); experiment: Colorimetric steady-state kinetics of gpPNA hydrolysis (0.31 to 2.5 mM) without inhibitor, 50 mM Tris-HCl pH 8.3, 37 °C, 380 nm, Lineweaver-Burk analysis.; assay type: biochemical; conditions: SD, n = 3; read-out: Km (mM), inhibitor 0 nM
T1 construct: N-terminal 6 x His tag; expressed from pET15b in E. coli BL21-DE3; dimer in solution
Protocol: (§1) The hydrolytic activity of the bacterial DPP4 enzyme was measured using Gly-Pro p-nitroanilide hydrochloride (gpPNA) (Sigma), as described for assessing hsDPP4 activity. […] Briefly, 20 µL of each cell-free supernatant was placed in triplicate in a flat 96-well plate. Two hundred microliters of the respective PNA solutions were plated in duplicate to obtain the standard curve. […] The enzymatic activity ([PNA generated (nM) / hydrolysis time (min)] / pmole enzyme) was quantified between 10 and 30 min of incubation time (linear kinetics). Three independent experiments with different purified protein batches were performed. The same protocol was followed for the murine samples (cecal content and plasma from the portal vein). In the case of the cecal content, the values of DPP4 activity were normalized by the amount of protein, quantified by the Bradford method (Bio-Rad, Hercules, CA).
Figure S3. Gliptin inhibition kinetics on pmDPP4Δ23. Lineweaver-Burk double-reciprocal (1/V and 1/S) plots showing pmDPP4Δ23 (bottom panels) and hsDPP4 (top panels) […]
(100 nM, burgundy lines) concentrations. The apparent Km was calculated respectively from inhibitor-associated data points using linear regression to find intersection point at the y-axis (1/S). V, reaction velocity (nmol PNA min-1 pmole enzyme-1); S, substrate concentration (mM gpPNA).
(1 picture or pasted object on this page, not shown here) […]

[4] = system: T1, pmDPP4Δ23 (headed pmDPP4 in Table 1 and Table S1); experiment: Overall Km for gpPNA without inhibitor, from the colorimetric kinetics at pH 8.3 and 37 °C.; assay type: biochemical; conditions: read-out: overall estimated Km
Protocol: as §1

Sequence of pmDPP4Δ23 (A0AA37KD06 entry or part of it, stated change not applied): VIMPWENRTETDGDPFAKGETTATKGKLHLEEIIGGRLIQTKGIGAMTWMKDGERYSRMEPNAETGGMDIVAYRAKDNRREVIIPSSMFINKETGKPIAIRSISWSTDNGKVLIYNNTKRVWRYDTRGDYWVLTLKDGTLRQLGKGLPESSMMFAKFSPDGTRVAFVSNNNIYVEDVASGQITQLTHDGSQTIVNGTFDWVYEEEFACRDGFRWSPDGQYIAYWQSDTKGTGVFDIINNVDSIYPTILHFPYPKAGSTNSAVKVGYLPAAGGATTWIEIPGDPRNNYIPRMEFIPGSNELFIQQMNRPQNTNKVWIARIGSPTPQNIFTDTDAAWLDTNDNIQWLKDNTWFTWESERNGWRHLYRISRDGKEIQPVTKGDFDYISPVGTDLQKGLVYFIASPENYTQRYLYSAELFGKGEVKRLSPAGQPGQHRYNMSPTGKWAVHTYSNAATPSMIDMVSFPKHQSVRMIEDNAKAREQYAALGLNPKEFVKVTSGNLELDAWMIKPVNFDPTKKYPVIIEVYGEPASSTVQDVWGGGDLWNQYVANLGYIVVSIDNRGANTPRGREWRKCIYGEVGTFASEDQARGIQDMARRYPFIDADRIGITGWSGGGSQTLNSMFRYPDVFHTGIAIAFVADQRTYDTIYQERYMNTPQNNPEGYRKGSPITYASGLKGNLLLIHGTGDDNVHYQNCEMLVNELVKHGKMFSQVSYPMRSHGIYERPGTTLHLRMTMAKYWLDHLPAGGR

Row | SMILES | Effect on pmDPP4Δ23 hydrolytic activity (in words) [1] | EC50 pmDPP4 [1] | also measured
1 | CC#CCn1c(N2CCC[C@@H](N)C2)nc2c1c(=O)n(Cc1nc(C)c3ccccc3n1)c(=O)n2C [Linagliptin, linagliptin] | not inhibited; also recorded: almost null effect; also recorded: minimally inhibited |  | 
2 | N#C[C@@H]1C[C@@H]2C[C@@H]2N1C(=O)[C@@H](N)C12CC3CC(CC(O)(C3)C1)C2 [Saxagliptin, saxagliptin] |  | nanomolar range | 
3 | N[C@@H](CC(=O)N1CCn2c(nnc2C(F)(F)F)C1)Cc1cc(F)c(F)cc1F [Sitagliptin, sitagliptin] | not inhibited; also recorded: almost null effect; also recorded: minimally inhibited |  | Depression-like behavior associated with increased systemic DPP4 activity [2]: counteracted
4 | N#C[C@@H]1CCCN1C(=O)CNC12CC3CC(CC(O)(C3)C1)C2 [Vildagliptin, vildagliptin] |  | nanomolar range | 
5 | NCC(=O)N1CCC[C@H]1C(=O)Nc1ccc([N+](=O)[O-])cc1 [gpPNA, Gly-Pro p-nitroanilide] (H-Gly-Pro-pNA) |  |  | Km [3]: 1.6 mM and 1.79 mM and 1.66 mM and 1.46 mM; Km [4]: 1630 µM
